From PMC8854621, “Functionally selective signaling and broad metabolic benefits by novel insulin receptor partial agonists” (Nature Communications, 2022) come the findings set out here.

Values joined by “and” are separate entries in the source; they are usually repeats but may differ in a detail not shown here. Identical values can stand only once. Like-named read-outs stand apart in the source and are kept apart here.

The test system of experiment [1] is AAV-LIRKO and WT mice. Kind of experiment: Glucose lowering in AAV-LIRKO versus WT mice. The format is in vivo, mouse. The note with it: glucose lowering efficacy; RHI 30, Levemir 24, IRPA-5 120, IRPA-6 60 nmol/kg. On the procedure: Male C57BL/6 mice and Sprague-Dawley rats were obtained from Taconic Farms (Germantown, NY, USA). AAV-LIRKO mice were developed by AAV-Cre injection into conditional IR KO mice (B6.129S4(FVB)-Insr^tm1Khn/J from Jackson Laboratory; Fig. S3). To generate streptozotocin (STZ)-induced diabetic mouse, male C57BL/6 mice were treated with a single intraperitoneal (i.p.; 100 mg/kg) injection of STZ (Sigma Chemical, St. Louis, MO, USA).
6. Mouse models and related studies
LIRKO mouse model generation
Jackson Laboratory, #6955). Male mice at 8 weeks of age maintained on chow diet (Teklad 7002) were administered AAV-cre via tail vein injection as doses indicated on Fig. S4. Mice were studied 4 weeks following AAV injection for ITT or put on HFD (Research Diets, D12492) for 4 weeks before glucose lowering studies were executed.
IRPA studies in HFD-STZ mice
HFD-STZ mice were developed as previously described 40 and were groups based on their glucose ranges. Acute glucose lowering efficacy of IRPAs in healthy and HFD -STZ mice were evaluated upon administration of escalating doses of test molecules, which was expressed as area over the curve (AOC) relative to vehicle.
Intact, male Beagle dogs (2-8 years old) were either purchased from Marshall Bioresources or acquired from other in-house programs. […]

Experiment [2] concerns ApoE KO mice. Kind of experiment: Body weight in ApoE KO mice, 8 weeks s.c. pump. Particulars: Fig. 6e; one value per animal. The format is in vivo, mouse. The procedure: (§1) Fig. 6 Beneficial IRPA effects beyond glycemic control. Glucose, body weight and hepatic triglyceride (TG) lowering by IRPA alone or in combination with a GLP-1 analog in mouse studies (a–d). Glucose lowering acutely (a) or during chronic QD dosing (b; 2-h post dose on day 11) in diabetic mice. Body weight (c) and liver triglyceride (d) changes at the end of 14-day QD dosing. […] Data is presented as mean ± SD. N = 8. p value is calculated using one-way ANOVA with Tukey’s multiple comparisons test: b1 < 0.001 vs. vehicle, b2 < 0.001 and b3 = 0.002 for indicated comparisons; c1 = 0.008 and c2 = 0.0001 vs. vehicle, c3 < 0.0001 for indicated comparisons; d1 < 0.001 vs. vehicle. IRPA reduces aortic plaque in ApoE KO mice (e–h). There was no significant body weight or cholesterol change from baseline by RHI or IRPA-3 (e, g). […] Data is presented as mean ± SD. p value is calculated using one-way ANOVA with Tukey’s multiple comparisons test: f1 = 0.0034 and f2 = 0.035 vs. vehicle; h1 = 0.046 vs. vehicle. […] Source data are provided as a Source Data file. […]

Experiment [3] has as its system ApoE KO mice. The experiment can be described thus: Aortic plaque in ApoE KO mice (Sudan IV staining, en face aorta). The format is in vivo, mouse. Particulars: Fig. 6h; one value per animal. On the procedure: as §1
Experiment [4] deals with SAOS2/B10 cells. The experiment can be described thus: Cellular proliferation, EdU incorporation (Click-it EdU). The format is cell-based. From the text:
3. […]
Ethynyl-2′-deoxyuridine; ThermoFisher Scientific) assay. […]

The subject of experiment [5] is differentiated mouse 3T3 L1 adipocytes. Kind of experiment: [14C]-2-deoxyglucose uptake in differentiated mouse 3T3 L1 adipocytes. The format is cell-based. The note with it: four-parameter fit; read-out: 2DG uptake in 3T3 L1 adipocytes EC50. The procedure:
and phosphatase inhibitors for 30 minutes. The lysates were applied to the modified MSD Elisa assays to measure phosphorylation of different tyrosine residues on insulin receptor. Briefly, lysates were added to custom MSD IR plates (MSD cat# N45CA-1). Phosphorylation of tyrosine on IR were measured using antibody against pY960 (rabbit mAb, Cell Applications #CB4378) or pY1345 (rabbit mAb 14A4, Cell Signaling #3026), respectively in combination with SULFO-tag anti rabbit antibody (MSD cat# R32AB). For pY1150, cell lysate was added to MSD high binding plate […]
Signaling #3024). The bound insulin receptor was detected using combination of rabbit anti-insulin receptor b (C-19, Santa Cruz sc-711) and SULFO-tag anti rabbit antibody.
3. IGF-1R binding, cellular proliferation in SaoS2 cells and 2-deoxyglucose (2DG) update in mouse
IGF-1R affinity of IRPAs was assessed in a whole cell binding assay using a cell line stably expressing […]
activities of IRPAs as measured by EdU incorporation to SAOS2/B10 cells using the Click-it EdU (5-Ethynyl-2′-deoxyuridine; ThermoFisher Scientific) assay. To assess IRPA function downstream of the signaling cascade, [14C]-2-deoxyglucose cellular uptake in the differentiated mouse 3T3 L1 adipocytes was measured using standard protocol (3). […]
measured (S4a). Mouse white adipose tissue pAkt levels (S4b) were quantified in the same manner as other tissues […]

On to “RHI: recombinant human insulin, purchased from commercial sources”, for which the “AUC reduction in AAV-LIRKO mice compared to WT mice” value in experiment [1] was found to be 30%. Moreover, the “Body ewight change (%) from pretreatment” value in experiment [2] was 13.2% and 5.48% and 7.48% and 4.52% and 8.31% and 18.95% and 5.38% and -7.57% and 17.6% and 5.39% and 19.87% and 3% and 15.56%. Moreover, the “Aortic plaque area (% to total surface)” value in experiment [3] was 33.7% and 21.2% and 20.3% and 22.7% and 23.8% and 26.1% and 21.1% and 26.6% and 22.5% and 26.7% and 29.0% and 23.3%. For the same substance, the EC50 in experiment [4] (geometric mean of all independent titrations, EdU incorporation, four-parameter fit, read-out: Cell Proliferation Assay Total Ave EC50) was 6.53 nM; in experiment [4] (titration 1, read-out: Cell Proliferation Assay EC50-1), 12.9 nM; in experiment [4] (titration 2, read-out: Cell Proliferation Assay EC50-2) it was 3.1 nM; in experiment [4] (titration 3, read-out: Cell Proliferation Assay EC50-3), 9.5 nM; in experiment [4] (titration 4, read-out: Cell Proliferation Assay EC50-4) it was 9.5 nM; in experiment [4] (titration 5, read-out: Cell Proliferation Assay EC50-5), 3.3 nM. Also, in experiment [5], the EC50 came to 6.6 nM.
